Assay [1] in a line: Induction of chondrogenesis in human MSC assessed as maximum activity at 10 nM incubated for 6 days by rhodamine B and Nile red staining based imaging analysis relative to control. Format: functional. As to conditions: BMMSC, 144 h, time 6 day.
Assay [2] concerns the target Dual specificity tyrosine-phosphorylation-regulated kinase 1A (Homo sapiens, UniProt Q13627). The assay can be described thus: Inhibition of recombinant DYRK1A (unknown origin) using Ser/Thr 18 peptide as substrate incubated for 1 hr in presence of ATP by FRET assay.
The nature of assay [3]: Effect on Wnt signaling pathway in human SW480 cells harbouring TCF/LEF luciferase reporter gene and SP5-Luc reporter gene incubated for 36 to 48 hrs by luminescence assay. Format: cell-based. (Reporter assays use an easily measured gene product as a stand-in for the process of interest.)
Assay [4] can be described thus: Inhibition of IL1-beta induced MMP3 expression levels in human chondrocytes assessed as MMP3 levels incubated for 2hrs followed by IL1-beta stimulation and measured after overnight incubation by LANCE assay. Format: functional, cell-based. Conditions: Chondrocyte.

What is called Emax is the maximal effect, on the per cent scale that the assay sets. As a reminder, the EC50 is the concentration that produces a half-maximal response.

Take `CC(C)CC(=O)Nc1cncc(-c2cnc3[nH]nc(-c4cc5c(-c6cccnc6)ccnc5[nH]4)c3c2)c1`: the Emax at 0.01 µM in assay [1] was determined as 43.5%. The 50% effective concentration (EC50) is 5 nM in assay [2] and more than 10000 nM in assay [3].

For `CCNCc1cncc(-c2cnc3[nH]nc(-c4nc5c(-c6cccc(F)c6)cccc5[nH]4)c3c2)c1`, the Emax at 0.01 µM in assay [1] turned out to be 98.7%. Moreover, the EC50 in assay [2] is 48 nM; in assay [3] it was 40.9 nM.

On to `CC(C)CC(=O)Nc1cncc(-c2cc3c(-c4nc5c(-c6ccoc6)cccc5[nH]4)n[nH]c3cn2)c1`, for which the Emax at 0.01 µM in assay [1] stood at 58%. Besides, the EC50 worked out at 38 nM in assay [2] and 55.3 nM in assay [3].

Take `O=C(Nc1cncc(-c2ccc3[nH]nc(-c4nc5c(-c6ccccc6F)cccc5[nH]4)c3n2)c1)C(F)(F)F`: the Emax at 0.01 µM in assay [1] was 40.1%. The half-maximal effective concentration (EC50) in assay [2] amounted to 30 nM; in assay [3], 823 nM.

On to `O=C(Nc1cncc(-c2ccc3[nH]nc(-c4cc5c(-c6cccnc6)cncc5[nH]4)c3c2)c1)C1CCCC1`, for which, in assay [1], the Emax at 0.01 µM turned out to be 45.5%. For the same compound, the concentration giving a half-maximal response (EC50) amounted to 24 nM in assay [2] and 1350 nM in assay [3].

Take `c1cncc(-c2ccc3[nH]nc(-c4cc5c(-c6cccnc6)ccnc5[nH]4)c3c2)c1`: the Emax at 0.01 µM in assay [1] turned out to be 16.7%. In addition, the concentration for a half-maximal effect (EC50) in assay [2] was 34 nM; in assay [3], more than 10000 nM.

For the compound `CCCC(=O)Nc1cncc(-c2cnc3[nH]nc(-c4cc5c(-c6cc(F)cc(CNS(C)(=O)=O)c6)cncc5[nH]4)c3c2)c1`, the Emax at 0.01 µM in assay [1] worked out at 36.7%. Besides, the figures for the EC50 in assay [2] and in assay [3] were 14 nM and 1680 nM, respectively.

For `c1cncc(-c2cc3c(-c4nc5c(-c6cccnc6)nccc5[nH]4)n[nH]c3cn2)c1`, the maximal response (Emax) at 0.01 µM in assay [1] is 44.5%. Besides, the EC50 is 29 nM in assay [2] and 28.3 nM in assay [3].

With `CCCCC(=O)Nc1cncc(-c2ccc3[nH]nc(-c4cc5cccnc5[nH]4)c3c2)c1`, the Emax at 0.01 µM in assay [1] amounted to 34.1%. Besides, the EC50 in assay [2] amounted to 17 nM; in assay [3], 324 nM.

`FC1(F)CCN(Cc2cncc(-c3cc4c(-c5cc6cccnc6[nH]5)n[nH]c4cn3)c2)C1`: in assay [1], the maximal response (Emax) at 0.01 µM is 45.3%. In addition, the EC50 in assay [2] was 12 nM; in assay [3] it was 1350 nM.

`O=C(Nc1cncc(-c2cc3c(-c4nc5c(-c6cccs6)nccc5[nH]4)n[nH]c3cn2)c1)C1CC1`: the maximal response (Emax) at 0.01 µM in assay [1] was determined as 68.3%. Also, the EC50 in assay [2] worked out at 35 nM; in assay [3], 22.2 nM.

With `CN(C)Cc1cncc(-c2ccc3[nH]nc(-c4nc5c(-c6cccc(F)c6)cncc5[nH]4)c3n2)c1`, the Emax at 0.01 µM in assay [1] stood at 16.7%. Further, the 50% effective concentration (EC50) in assay [2] is 62 nM; in assay [3], 1050 nM.

As to `CN(C)Cc1cncc(-c2ccc3[nH]nc(-c4cc5cccnc5[nH]4)c3n2)c1`, in assay [1], the Emax at 0.01 µM stood at 37%. Besides, the 50% effective concentration (EC50) in assay [2] was 42 nM; in assay [3], more than 10000 nM.

As to `c1cc(-c2ccoc2)c2cc(-c3n[nH]c4ccc(-c5cncc(CNCC6CCCC6)c5)nc34)[nH]c2c1`, in assay [1], the Emax at 0.01 µM stood at 25.3%. Also, the EC50 in assay [2] was found to be 59 nM; in assay [3], 3640 nM.

Consider `CC(C)C(=O)Nc1cncc(-c2cc3c(-c4cc5c(N6CCN(C)CC6)cccc5[nH]4)n[nH]c3cn2)c1`, for which the Emax at 0.01 µM in assay [1] was 36.4%. The EC50 in assay [2] was found to be 26 nM; in assay [3], 700 nM.

As to `O=C(CC1CCNCC1)Nc1cncc(-c2cc3c(-c4nc5c(-c6cccc(F)c6)ccnc5[nH]4)n[nH]c3cn2)c1`, in assay [1], the Emax at 0.01 µM is 54.7%. The EC50 is 5 nM in assay [2] and 345 nM in assay [3].

Regarding `FC1(F)CCN(Cc2cncc(-c3cnc4[nH]nc(-c5nc6c(-c7ccoc7)nccc6[nH]5)c4c3)c2)C1`, the 50% effective concentration (EC50) was 0.1 nM in assay [4], 10 nM in assay [2] and 162 nM in assay [3].

With `COc1cncc(C(=O)Nc2c[nH]nc2C(=O)Nc2ccc(CN(C)C)cc2)c1`, the figures for the concentration for a half-maximal effect (EC50) in assay [4], in assay [2] and in assay [3] were 3000 nM, 10 nM and 123 nM, respectively.

Turning to `CN1CCC(n2cc(C(=O)Nc3cc4cc(-c5cncc6[nH]ccc56)ccc4cn3)cn2)CC1`, the EC50 in assay [4] came out at 40.1 nM; in assay [2], 3 nM; in assay [3], 13.3 nM.

Take `O=C(Nc1cncc(-c2ccc3[nH]nc(-c4cc5c(-c6ccccc6F)nccc5[nH]4)c3n2)c1)C1CC1`: in assay [1], the Emax at 0.01 µM stood at 24.8%. The EC50 in assay [2] stood at 46 nM; in assay [3], 642 nM.

`CCCCC(=O)Nc1cncc(-c2cc3c(-c4cc5cnccc5[nH]4)n[nH]c3cn2)c1`: the maximal effect (Emax) at 0.01 µM in assay [1] was determined as 49.9%. Besides, the EC50 stood at 2 nM in assay [2] and 3570 nM in assay [3].

In the case of `Cc1n[nH]c2ccc(-c3cc(OC[C@H](N)Cc4ccccc4)cnn3)cc12`, the values for the EC50 in assay [4], in assay [2] and in assay [3] were 3000 nM, 32 nM and 1150 nM, respectively.

For `CS(=O)(=O)NCc1cc(F)cc(-c2cncc3[nH]c(-c4n[nH]c5cnc(-c6cncc(NC(=O)C7CCC7)c6)cc45)cc23)c1`, the Emax at 0.01 µM in assay [1] stood at 15.5%. The EC50 in assay [2] is 32 nM; in assay [3] it was more than 10000 nM.

On to `CN1CCN(c2nccc3[nH]c(-c4n[nH]c5cnc(-c6cncc(N)c6)cc45)cc23)CC1`, for which the Emax at 0.01 µM in assay [1] is 49.8%. The EC50 in assay [2] is 16 nM; in assay [3] it was more than 10000 nM.

Regarding `O=C(Nc1ccc(N2CCCC2)nc1)c1n[nH]c2ccc(-c3cncc(CN4CCC4)c3)cc12`, the results for the EC50 in assay [4], in assay [2] and in assay [3] were 3000 nM, 3 nM and more than 10000 nM, respectively.

As for `Cc1cc(-c2ccc3[nH]nc(C(=O)Nc4ccc(OC5CCN(C)CC5)cc4)c3c2)sn1`, the results for the half-maximal effective concentration (EC50) in assay [4], in assay [2] and in assay [3] were 44.2 nM, 3 nM and 645 nM, respectively.

Consider `CC(C)CC(=O)Nc1cncc(-c2ccc3[nH]nc(-c4nc5c(-c6cc(F)cc(NCCN(C)C)c6)cncc5[nH]4)c3c2)c1`, for which, in assay [1], the maximal response (Emax) at 0.01 µM came to 82%. Also, the EC50 was determined as 10 nM in assay [2] and 22 nM in assay [3].

Consider `CN1CCC(Oc2ccc(NC(=O)c3n[nH]c4cc(F)c(-c5cnn(C)c5)cc34)cn2)CC1`, for which the concentration giving a half-maximal response (EC50) in assay [4] is 1080 nM; in assay [2] it was 1 nM; in assay [3], 120 nM.

`CN1CCC(Oc2ncc(NC(=O)c3n[nH]c4cc(F)c(-c5cnn(C)c5)cc34)cc2F)CC1`: the results for the EC50 in assay [4], in assay [2] and in assay [3] were 12.6 nM, 1 nM and 1150 nM, respectively.

For `Cc1cn(-c2cncc3[nH]c(-c4n[nH]c5ccc(-c6cncc(NC(=O)CC(C)C)c6)cc45)nc23)cn1`, the EC50 in assay [4] came to 845 nM; in assay [2], 1 nM; in assay [3] it was 4570 nM.

Turning to `CCNCc1cncc(-c2ccc3[nH]nc(-c4nc5c(-c6ccccn6)nccc5[nH]4)c3c2)c1`, the EC50 in assay [4] stood at 2.4 nM; in assay [2], 10 nM; in assay [3], 2130 nM.

Regarding `COc1cncc(C(=O)Nc2c[nH]nc2C(=O)Nc2ccc(N3CCNCC3)nc2)c1`, the maximal response (Emax) at 0.01 µM in assay [1] came out at 90.7%. The 50% effective concentration (EC50) in assay [2] worked out at 7 nM; in assay [3], 681 nM.

Consider `CN(C)Cc1cncc(-c2ccc3[nH]nc(-c4cc5c(-c6cccnc6)cccc5[nH]4)c3n2)c1`, for which the maximal effect (Emax) at 0.01 µM in assay [1] came out at 35.9%. In addition, the EC50 in assay [2] worked out at 82 nM; in assay [3], 415 nM.

On to `CS(=O)(=O)NCc1cc(F)cc(-c2cncc3[nH]c(-c4n[nH]c5ncc(-c6cncc(CN7CCCCC7)c6)cc45)cc23)c1`, for which the Emax at 0.01 µM in assay [1] came out at 22.7%. Also, the 50% effective concentration (EC50) in assay [2] was 21 nM; in assay [3], 1850 nM.

On to `CN1CCC(Oc2ccc(NC(=O)c3n[nH]c4ccc(-c5ccc(N)nc5)cc34)cc2)CC1`, for which the EC50 in assay [4] amounted to 4.9 nM; in assay [2] it was 4 nM; in assay [3], 477 nM.

For the compound `O=C(Nc1ccc(CN2CCCC2)cc1)c1n[nH]c2ccc(-c3cnccn3)cc12`, the EC50 came out at 7.1 nM in assay [4], 4 nM in assay [2] and 1660 nM in assay [3].

Take `O=C(Nc1cnccn1)c1n[nH]c2ccc(-c3cncc(CN4CCCCCC4)c3)cc12`: the figures for the EC50 in assay [4], in assay [2] and in assay [3] were 3000 nM, 2 nM and 430 nM, respectively.

Take `Cc1ncc(-c2ccc3cnc(NC(=O)C4(F)CC4)cc3c2)n1C`: the half-maximal effective concentration (EC50) in assay [4] stood at 18.7 nM; in assay [2] it was 6 nM; in assay [3], 2210 nM.

For the compound `O=C(Nc1cc2cc(-c3cnn4c3CCNC4)ccc2cn1)c1ccc(OC(F)F)cc1`, the EC50 in assay [4] came out at 1920 nM; in assay [2], 6 nM; in assay [3], 375 nM.

Turning to `O=C(Nc1ccc(OC(CO)CO)nc1)c1n[nH]c2ccc(-c3cncc(CN4CCCCC4)c3)cc12`, the half-maximal effective concentration (EC50) in assay [4] amounted to 303 nM; in assay [2] it was 4 nM; in assay [3], 500 nM.

Take `Cc1ncc(NC(=O)c2n[nH]c3ccc(-c4cnn(C5CCN(C)CC5)c4)cc23)s1`: the values for the concentration giving a half-maximal response (EC50) in assay [4], in assay [2] and in assay [3] were 3000 nM, 3 nM and 95 nM, respectively.

Turning to `O=C(Nc1ccc(OCCN2CCCC2)cc1)c1n[nH]cc1/C=C/c1cccnc1`, the concentration for a half-maximal effect (EC50) in assay [4] turned out to be 3000 nM; in assay [2], 4 nM; in assay [3] it was 1850 nM.

On to `O=C(Nc1ccc(CN2CCCC2)cc1)c1n[nH]c2ccc(-c3cccnc3F)cc12`, for which the results for the EC50 in assay [4], in assay [2] and in assay [3] were 3000 nM, 1 nM and 196 nM, respectively.

Turning to `O=C(Nc1ccc(N2CCNCC2)nc1)c1n[nH]cc1/C=C/c1cccnc1`, the EC50 in assay [4] amounted to 0.2 nM; in assay [2] it was 1 nM; in assay [3], 1650 nM.

Consider `COc1ccc(NC(=O)c2n[nH]cc2/C=C/c2cncc(CN3CCCCC3)c2)cn1`, for which the results for the half-maximal effective concentration (EC50) in assay [4], in assay [2] and in assay [3] were 3000 nM, 5 nM and 1450 nM, respectively.

`O=C(Nc1ccc(OC(F)F)cc1)c1n[nH]c2ccc(-c3cnc4n3CCNC4)cc12`: the concentration giving a half-maximal response (EC50) in assay [4] worked out at 13 nM; in assay [2] it was 16 nM; in assay [3] it was 684 nM.

As to `Cn1cc(-c2cc3c(C(=O)Nc4ccc5c(c4)CNC5)n[nH]c3cc2F)cn1`, the concentration for a half-maximal effect (EC50) in assay [4] was 1200 nM; in assay [2], 2 nM; in assay [3], 793 nM.

Source of the values: ChEMBL document CHEMBL4739717, “Methods of treating cartilage disorders through inhibition of clk and dyrk” (2020).
